Reference: article PMC8532876, “Can Immobilized Artificial Membrane Chromatography Support the Characterization of Antimicrobial Peptide Origin Derivatives?” (Antibiotics, 2021)
Ends that are not written are not given here.

What was measured:
[1] = IAM-HPLC, chromatographic hydrophobicity index on an immobilized artificial membrane column; format: physicochemical; conditions: IAM.PC.DD2 column, gradient 0–85% acetonitrile in 10-mM phosphoric buffer pH 7.4, 30.0 °C; calculated from retention time with calibration curve
Protocol: All HPLC experiments were carried out using a Prominence-1 LC-2030C 3D HPLC system (Shimadzu, Tokyo, Japan) equipped with an IAM.PC.DD2 column (10 mm × 4.6 mm; particle size 10.0 µm with an IAM guard column; Regis Technologies, Austin Ave, Morton Grove, IL, USA) and diode array detection (DAD). The HPLC system was controlled by LabSolution software (version 5.90, Shimadzu, Japan). The stock solutions of the solutes were diluted to obtain 100-µg/mL concentrations, and the injected volume was 10 µL, which was used for the analytes. The IAM-HPLC analyses were performed with a linear gradient of 0–85% in phase B (where phase A was 10-mM phosphoric buffer at pH 7.4, and phase B was acetonitrile) at a flow rate of 1.5 mL/min. The ultrapure water used for the mobile phase preparation was purified by the Millipore Direct-Q 3 UVWater Purification System (Millipore Corporation, Bedford, MA, USA). The other reagents used for the preparation of the mobile phase: acetonitrile, sodium phosphate dibasic dehydrate, and sodium phosphate monobasic monohydrate (Sigma-Aldrich, Steinheim, Germany) were analytical grade. During the chromatographic analysis, the temperature of the column was constant at 30.0 °C, and the analysis time was 6.5 min. The CHIAM indices of the target solutes were obtained using a calibration set of the reference substances using the protocol developed by Valko and coworkers. The reference substances were purchased, respectively: octanonophenone and butyrophenone acetanilide (Alfa Aesar, Haverhill, MA, USA); acetaminophen, acetophenone, levofloxacin, and ciprofloxacin (Sigma-Aldrich, Steinheim, Germany); and heptanophenone, hexanophenone, valerophenone, propiophenone, and acetophenone (Acros Organic, Pittsburg, PA, USA). Figure 2 presents a correlations plot of the CHIIAM indices of the model substances and experimentally determined retention times.

[2] = design: method as in PMID 10906732, PMID 27084527; conditions: model substances of the IAM-HPLC calibration curve, protocol of Valko and coworkers ref 13, 14; cited from earlier work

Row | Compound | CHIIAM [1] | CHIIAM of calibration set reference substances [2]
1 | DVIKKVASVIG-NH2 [(4–14) Citropin, analog of citropin 1.1] | 27.85 | 
2 | CCCCC(=O)c1ccccc1 [valerophenone] |  | 37.30
3 | CC(=O)Nc1ccccc1 [acetanilidine] |  | 11.50
4 | DVIKKVASVIGGL-NH2 [(4–16) Citropin, analog of citropin 1.1] | 38.24 | 
5 | C[C@H]1COc2c(N3CCN(C)CC3)c(F)cc3c(=O)c(C(=O)O)cn1c23 [Levofloxacin] | 24.88 | 
6 | KVASVIGGL-NH2 [(8–16) Citropin, analog of citropin 1.1] | 45.95 | 
7 | GLFDVVIGGL-NH2 [(1–5)–(12–16) Citropin, analog of citropin 1.1] | 28.66 | 
8 | CCCCCCC(=O)c1ccccc1 [heptanophenone] |  | 45.70
9 | GLFDVIKASVIGGL-NH2 [(1–7)–(10–16) Citropin, analog of citropin 1.1] | 37.09 | 
10 | CCCCCC(=O)c1ccccc1 [hexanophenone] |  | 41.80
11 | GLFDVIK-NH2 [(1–7) Citropin, analog of citropin 1.1] | 42.15 | 
12 | CCCCCCCC(=O)c1ccccc1 [octanophenone] |  | 49.4
13 | CC(=O)Nc1ccc(O)cc1 [acetaminophen] |  | 2.90
14 | CC(=O)c1ccccc1 [acetable] |  | 17.20
15 | O=C(O)c1cn(C2CC2)c2cc(N3CCNCC3)c(F)cc2c1=O [Ciprofloxacin] | 19.70 | 
16 | CCCC(=O)c1ccccc1 [butyrophenone] |  | 32.00
17 | CCC(=O)c1ccccc1 [propiohenone] |  | 25.90
